Measured values from patent US20110256565A1, “METHODS FOR DIAGNOSIS AND TREATMENT OF NEURODEGENERATIVE DISEASES OR DISORDERS” (priority 2008, published 2011).

What was measured:
neuroblastoma cells = conditions: cited from earlier work
GSK3B = GSK3B (Homo sapiens, UniProt P49841); conditions: cited from earlier work
PS-mutant MEFs = test: Cinnamycin sensitivity, live/dead assay in MEFs; type: cell-based, mouse; conditions: PS-mutant MEFs vs. control MEFs; 1 μM cinnamycin for 10 min at 37° C., live/dead assay (FIG. 41D)
Method: FIG. 41. Phospholipid synthesis in MEFs. FIG. 41A: Synthesis of PtdSer and PtdEtn after 3H-Ser labeling for the indicated times (hours) (n=3). FIG. 41B: Pulse-chase. MEFs labeled for 1 h with 3H-Ser; chase with cold Ser (n=3). FIG. 41C: Phospholipid synthesis in crude mitochondria (n=3 or 4) Error bars, SE; p<0.05. FIG. 41D: Cinnamycin sensitivity in MEFs. Left: Live/dead assay (1 μM cinnamycin for 10 min at 37° C.). Right: Cinnamycin-sensitivity assay (10 min at 37° C.).
AD patients have aberrant phospholipid profiles, both in fibroblasts and in brain (Pettegrew et al., (2001) Neurochem. Res. 26, 771-782; Murphy et al., (2006) Brain Res. Bull. 69, 79-85). PtdSer and PtdEtn are exported to the inner leaflet of the plasma membrane (Vance (2008) J. Lipid Res. 49, 1377-1387). […] Both the 3H-Ser and cinnamycin results are relevant to the pathogenesis of AD.
Cinnamycin sensitivity assays. To measure cinnamycin binding (Emoto et al. (1999) Proc. Natl. Acad. Sci. USA 96:12400-12405), cells are incubated with 125I-labeled streptavidin complexed with cinnamycin (Ro 09-0198) peptide complex (1251-SA-Cin; 50,000 cpm/ml; Sigma) for 1 h at 39.5° C. The radioactivities of 125I-SA-Cin bound to the cells is analyzed by bioimage analyzer. […] Viability will be measured by “live/dead” assay (Molecular Probes).

[1] = test system: fibroblasts from FAD patients with pathogenic mutations in PS1 and from sporadic AD (SAD) patients; test: Cinnamycin sensitivity, Live/Dead assay in patient fibroblasts; type: cell-based, human; conditions: 1 μM cinnamycin for 10 min at 37° C.; fibroblasts from SAD patients (FIG. 43)
Method: FIG. 43. Cinnamycin sensitivity in fibroblasts from FAD patients with pathogenic mutations in PS1 (PS1) and from sporadic AD (SAD) patients. Cells were treated with 1 μM cinnamycin for 10 min at 37° C., and viabitlity was monitored by Live/Dead assay.

human erythrocytes = conditions: incubation time ~2 min, 37° C., read-out: LC50 (concentration to kill 50% of the cells); cited from earlier work

GSK3B, sequence (P49841 whole entry, species assumed): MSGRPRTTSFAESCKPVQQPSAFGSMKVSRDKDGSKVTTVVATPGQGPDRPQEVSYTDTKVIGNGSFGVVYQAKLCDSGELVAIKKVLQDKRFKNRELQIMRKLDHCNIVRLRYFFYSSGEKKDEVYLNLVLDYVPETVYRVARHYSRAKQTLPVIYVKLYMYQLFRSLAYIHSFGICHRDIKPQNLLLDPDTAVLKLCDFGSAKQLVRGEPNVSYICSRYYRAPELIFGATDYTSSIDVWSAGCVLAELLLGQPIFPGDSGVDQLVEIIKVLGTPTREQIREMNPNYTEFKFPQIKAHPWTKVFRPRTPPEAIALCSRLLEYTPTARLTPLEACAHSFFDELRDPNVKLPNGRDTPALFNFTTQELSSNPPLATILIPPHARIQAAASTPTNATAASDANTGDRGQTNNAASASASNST

In the case of `O=C1NC(=O)C(c2ccccc2[N+](=O)[O-])=C1Nc1ccc(O)c(Cl)c1` [SB415286], the “Effect on neurite outgrowth” value (neuroblastoma cells) is given as “inhibit neurite outgrowth”.
In the case of `Cn1sc(=O)n(Cc2ccccc2)c1=O` [TDZD-8], the “Effect on GSK3B activity” value (GSK3B) is given as “inhibit GSK3B activity”.
In the case of cinnamycin, the “Sensitivity to cinnamycin vs. controls” value (PS-mutant MEFs) is listed as “more sensitive”, the “Cinnamycin sensitivity (viability by Live/Dead assay)” value [1] is listed as “cinnamycin sensitivity in the SAD patients” and the CC50 (human erythrocytes) is listed as ~1000 µM.
